Data as given in paper PMC10396955, “2-Oxabicyclo[2.1.1]hexanes as saturated bioisosteres of the ortho-substituted phenyl ring” (Nature Chemistry, 2023).
Converted amounts (≈) assume the structure as drawn. Like-named read-outs stand apart in the source and are kept apart here.

Assays:
Fusarium verticillioides = test: Antifungal activity, agar well diffusion method; format: cell-based; settings: Fusarium verticillioides, 0 = absence of antifungal activity, read-out: Diameter of inhibition zone; for zone of inhibition at 3.9 µg/mL: 0.0039 mg/mL; for zone of inhibition at […]: 0.0078 mg/mL; for zone of inhibition at 15.6 µg/mL: 0.0156 mg/mL; for zone of inhibition at 31.25 µg/mL: 0.03125 mg/mL; for zone of inhibition at 62.5 µg/mL: 0.0625 mg/mL; for zone of inhibition at 125 µg/mL: 0.125 mg/mL; for zone of inhibition at 250 µg/mL: 0.25 mg/mL; for zone of inhibition at 500 µg/mL: 0.5 mg/mL; for zone of inhibition at 1000 µg/mL: 1 mg/mL, 40 µl per well, 25 °C, 72 h
Description: (§1) The agar well diffusion method is widely used to evaluate the antimicrobial activity of different substances (S. Magaldi, S. Mata-Essayag, C. Hartung de Capriles, et al. Well diffusion for antifungal susceptibility testing, Int. J. Infect. Dis. 8, 2004 , 39–45; C. Valgas, S. M. De Souza, E. F. A. Smânia, et al. Screening methods to determine antibacterial activity of natural products. Braz. J. Microbiol. 38 , 2007 , 369–380). Similarly to the procedure used in a disk-diffusion method, the agar plate surface is inoculated by spreading a volume of the microbial inoculum over the entire agar surface. Then, a hole with a diameter of 6 to 8 mm is punched aseptically with a sterile cork borer or a tip, and a volume […] of the antimicrobial agent or extract solution at desired concentration is introduced into the well. Then, agar plates are incubated under suitable conditions depending upon the test microorganism. The antimicrobial agent diffuses in the agar medium and inhibits the growth of the microbial strain tested (M. Balouiri, M. Sadiki, S. K. Ibnsouda. Methods for in vitro evaluating […]
(§2) Agar well diffusion method is a qualitative method used to measure the ability of compounds to inhibit microbial growth. This test is a quick and easy way to measure and compare levels of inhibitory […]
(§3) Antifungal activity of the synthetic compounds using agar well diffusion The compunds were tested towards plant pathogens Fusarium oxysporum Schltdl. and F. verticillioides (Sacc.) Nirenberg isolated from crops. Antifungal activity of the synthetic compounds was evaluated with using of an agar well diffusion method based on a disk diffusion assay for testing filamentous fungi (CLSI M51-A) [CLSI. Method for Antifungal Disk Diffusion Susceptibility Testing of Nondermatophyte Filamentous Fungi; Approved Guideline.CLSI document M51-A. Wayne, PA:
(§4) Clinical and Laboratory Standards Institute; 2010. This method is standardized for Altenaria , Aspergillus, Bipolaris , Fusarium , order Mucorales etc.
(§5) Preparation of synthetic compounds for mycological assay
(§6) Solutions of fungicides and its analogs were diluted in dimethyl sulfoxide (DMSO) to produce the […]
(§7) Antifungal well diffusion method
(§8) The fungal strains were cultured on potato dextrose agar slants (PDA, Eur. Pharm.) and incubated at 25 °C for 5 days. Sterile distilled water was used to cover and resuspend the colonies. Suspension of […]
(§9) conidia was adjusted to inoculums 5×10^6 conidia/mL. The suspension was further diluted in warm PDA 1:10 to obtain final working inoculums 5×10^5 conidia/mL.
(§10) Polypropylene cylinders (d, 5 mm) were placed on the surface and wells punched in the medium were used as reservoir of the test substances in different concentrations. 40 µl of solutions containing 0.0039-1.0 mg/mL of a test compound was added into the wells.
(§11) Each compound was tested in triplicate at different concentrations. Growth control was a well with 40 µl of DMSO, which was used for test components dilution.
(§12) Plates incubated at 25 °C for 72 h. The test compounds at known concentration into contact with an inoculated medium then exerts a growth-inhibiting effect then a clear zone (the zone of inhibition) appears around the test product. Diameter of a clear zone around the well is measured at the end of the incubation period in millimeters. If the fungal strain is susceptible to the antifungal agent, then a zone of inhibition appears on the agar plate. If it is resistant to the test compound, then no zone is evident.
(§13) The size of the zone of inhibition is usually related to the level of antifungal activity present in the […]
(§14) The growth rate of Fusarium oxysporum and F. verticillioides for each well was determined visually and compared with the growth of control.
(§15) As shown in the table the antifungal activity of the 6 compounds, - Fluxapyroxad, compound 28, compound 29, Boscalid, compound 30, compound 31, - were tested against plant pathogenic fungal […]
(§16) toward Fusarium oxysporum (Table S5, Figure S16). Inhibition zones of all compounds characterized […]

Fusarium oxysporum = test: Antifungal activity, agar well diffusion method; format: cell-based; settings: for zone of inhibition at 3.9 µg/mL / zone of inhibition at […] / zone of inhibition at 15.6 µg/mL / zone of inhibition at 31.25 µg/mL / zone of inhibition at 62.5 µg/mL / zone of inhibition at 125 µg/mL / zone of inhibition at 250 µg/mL / zone of inhibition at 500 µg/mL / zone of inhibition at 1000 µg/mL: Fusarium oxysporum, zones st (static growth), read-out: Diameter of inhibition zone; for zone of inhibition at 3.9 µg/mL: 0.0039 mg/mL; for zone of inhibition at […]: 0.0078 mg/mL; for zone of inhibition at 15.6 µg/mL: 0.0156 mg/mL; for zone of inhibition at 31.25 µg/mL: 0.03125 mg/mL; for zone of inhibition at 62.5 µg/mL: 0.0625 mg/mL; for zone of inhibition at 125 µg/mL: 0.125 mg/mL; for zone of inhibition at 250 µg/mL: 0.25 mg/mL; for zone of inhibition at 500 µg/mL: 0.5 mg/mL; for zone of inhibition at 1000 µg/mL: 1 mg/mL, 40 µl per well, 25 °C, 72 h; for lowest inhibition concentration: agar well diffusion, tested 0.0039-1.0 mg/mL
Description: as §1, §2, §3, §4, §5, §6, §7, §8, §9, §10, §11, §12, §13, §14, §15, §16

[1] = Kinetic solubility in phosphate-buffered saline, pH 7.4; format: physicochemical; settings: 25 °C, pH 7.4, aqueous buffer, kinetic from dmso stock
Experimental: Analysis of Aqueous Solubility […]
compound (Ondansetron) were assessed for kinetic solubility in phosphate-buffered saline, pH […]
Phosphate buffered saline, pH 7.4 (Sigma-Aldrich, USA; Cat #P3813) […]
MultiScreen HTS 96 Well Filter Plates (Millipore, Ireland; Cat # MSGVS2210) […]
Matrix Multichannel Electronic Pipette 2-125 µL, 5-250 µL, 15-1250 µL (Thermo Scientific, […]
Vacuum pump (Millipore, USA; Model # XX5500000)
The measurements were performed using SpectraMax Plus reader in UV-Vis mode. Acquisition and analysis of the data were performed using SoftMax Pro v.5.4 (Molecular Devices) and Excel […]
Kinetic solubility assay was performed according to the Enamine’s aqueous solubility SOP.
Briefly, using a 20 mM stock solution of the compound in 100% DMSO dilutions were prepared to a theoretical concentration of 400 μM in duplicates in phosphate-buffered saline pH 7.4 […]
for two hours and then filtered through HTS filter plates using a vacuum manifold. The filtrates of test compounds were diluted 2-fold with acetonitrile with 2% DMSO before measuring.
In parallel, compound dilutions in acetonitrile/PBS (1:1) were prepared to theoretical […]
DMSO to generate calibration curves. Ondansetron was used as reference compound to control proper assay performance. 200 μl of each sample was transferred to 96-well plate and measured in 200-550 nm range with 5 nm step.
The concentrations of compounds in PBS filtrate are calculated using a dedicated Microsoft Excel calculation script. Proper absorbance wavelengths for calculations are selected for each compound manually based on absorbance maximums (absolute absorbance unit values for the minimum and maximum concentration points within 0 – 3 OD range). Each of the final datasets is additionally visually evaluated by the operator and goodness of fit (R2) is calculated for each calibration curve. The effective range of this assay is approximately 2-400 μM and the […]

## O=C(N[C@@H]1[C@H]2C[C@]1(c1ccc(Cl)cc1)CO2)c1cccnc1Cl (relative stereo) [Compound 31]
Fusarium verticillioides
  zone of inhibition at 3.9 µg/mL: 0 mm
  zone of inhibition at […]: 0 mm
  zone of inhibition at 15.6 µg/mL: 0 mm
  zone of inhibition at 31.25 µg/mL: 0 mm
  zone of inhibition at 62.5 µg/mL: 0 mm
  zone of inhibition at 125 µg/mL: 10 ± 0.6 mm
  zone of inhibition at 250 µg/mL: 16 ± 1.2 mm
  zone of inhibition at 500 µg/mL: 23 ± 1.5 mm
  zone of inhibition at 1000 µg/mL: 29 ± 1.2 mm
Fusarium oxysporum
  zone of inhibition at 3.9 µg/mL: 8 ± 0.6 mm
  zone of inhibition at […]: 9 ± 0.6 mm
  zone of inhibition at 15.6 µg/mL: 14 ± 1 mm
  zone of inhibition at 31.25 µg/mL: 16 ± 1 mm
  zone of inhibition at 62.5 µg/mL: 18 ± 0.6 mm
  zone of inhibition at 125 µg/mL: 19 ± 1 mm
  zone of inhibition at 250 µg/mL: 18 ± 1 mm
  zone of inhibition at 500 µg/mL: 21 ± 1 mm
  zone of inhibition at 1000 µg/mL: 25 ± 0.6 mm
  lowest inhibition concentration: 0.0039 mg/mL
other
  melting point: 147 to 148 °C
[1]; phosphate-buffered saline, Table S1, incubation 1, read-out: PBS solubility, pH 7.4, Incubation 1
  solubility at 2 h: 148 µM (≈ 51.7 µg/mL)
[1]; phosphate-buffered saline, Table S1, incubation 2, read-out: PBS solubility, pH 7.4, Incubation 2
  solubility at 2 h: 157 µM (≈ 54.8 µg/mL)
[1]; phosphate-buffered saline, experimental kinetic solubility in phosphate-buffered saline at pH 7.4, Fig. 3, read-out: Solubility
  solubility at 2 h: 152 µM (≈ 53.1 µg/mL)

## Cn1cc(C(=O)Nc2ccccc2-c2cc(F)c(F)c(F)c2)c(C(F)F)n1 [Fluxapyroxad, reference compound]
Fusarium verticillioides
  zone of inhibition at 3.9 µg/mL: 19 ± 0.6 mm
  zone of inhibition at […]: 26 ± 1.2 mm
  zone of inhibition at 15.6 µg/mL: 30 ± 1.5 mm
  zone of inhibition at 31.25 µg/mL: 33 ± 0.6 mm
  zone of inhibition at 62.5 µg/mL: 34 ± 1.2 mm
  zone of inhibition at 125 µg/mL: 36 ± 0.6 mm
  zone of inhibition at 250 µg/mL: 40 ± 1 mm
  zone of inhibition at 500 µg/mL: 49 ± 1.2 mm
  zone of inhibition at 1000 µg/mL: 56 ± 1.7 mm
Fusarium oxysporum
  zone of inhibition at 3.9 µg/mL: 14 ± 1.2 mm
  zone of inhibition at […]: 17 ± 1.2 mm
  zone of inhibition at 15.6 µg/mL: 22 ± 1.7 mm
  zone of inhibition at 31.25 µg/mL: 28 ± 1.5 mm
  zone of inhibition at 62.5 µg/mL: 30 ± 0.6 mm
  zone of inhibition at 125 µg/mL: 33 ± 1 mm
  zone of inhibition at 250 µg/mL: 35 ± 0.6 mm
  zone of inhibition at 500 µg/mL: 38 ± 1.5 mm
  zone of inhibition at 1000 µg/mL: 43 ± 1.53 mm
  lowest inhibition concentration: < 0.0039 mg/mL
[1]; PBS solubility, pH 7.4, Incubation 1
  solubility at 2 h: 24 µM (≈ 9.15 µg/mL)
[1]; PBS solubility, pH 7.4, Incubation 2
  solubility at 2 h: 27 µM (≈ 10.3 µg/mL)
[1]; Solubility
  solubility at 2 h: 25 µM (≈ 9.53 µg/mL)
